≈ marks a conversion by molar mass, not a printed value.
Legend:
[1] = Cytotoxicity against mouse RAW264.7 cells assessed as reduction in cell viability at 25 ug/ml incubated for 48 hrs by MTT assay relative to control; assay type: cell-based; settings: read-out: INH
[2] = test system: Mycobacterium tuberculosis; test: Potency index, ratio of ethambutol MIC to test compound MIC for antitubercular activity against Mycobacterium tuberculosis H37Rv incubated for […] by microplate alamar blue assay; assay type: functional
[3] = test system: Mycobacterium tuberculosis; test: Antitubercular activity against Mycobacterium tuberculosis H37Rv incubated for 7 days by microplate alamar blue assay; assay type: functional; settings: 168 h

Compound | cytotoxicity at 48 h, 25 ug/ml [1] | Ratio [2] | MIC [3]
Cc1nn(-c2ccccc2)c(-n2cncn2)c1C1C2CCCN2C2(C(=O)Nc3ccc(Cl)cc32)C1C(=O)c1ccccc1 (stereo unspecified) | 19.8% | >1 | 0.78 µg/mL (≈ 1.32 µM)
COc1ccc(C(=O)C2C(c3c(C)nn(-c4ccccc4)c3-n3cncn3)C3CCCN3C23C(=O)Nc2ccccc23)cc1 (stereo unspecified) | – | – | 12.5 µg/mL (≈ 21.3 µM)
Cc1nn(-c2ccccc2)c(-n2cncn2)c1C1C2CCCN2C2(C(=O)Nc3ccccc32)C1C(=O)c1ccccc1 (stereo unspecified) | – | – | > 25 µg/mL
Cc1nn(-c2ccccc2)c(-n2cncn2)c1C1C2CCCN2C2(C(=O)Nc3ccccc32)C1C(=O)c1ccc(Br)cc1 (stereo unspecified) | 27.1% | – | 1.56 µg/mL (≈ 2.46 µM)
Cc1nn(-c2ccccc2)c(-n2cncn2)c1C1C2CCCN2C2(C(=O)Nc3ccc(Br)cc32)C1C(=O)c1ccc(Cl)cc1 (stereo unspecified) | 22.4% | – | 1.56 µg/mL (≈ 2.33 µM)
Cc1nn(-c2ccccc2)c(-n2cncn2)c1C1C2CCCN2C2(C(=O)Nc3ccc(Cl)cc32)C1C(=O)c1ccc([N+](=O)[O-])cc1 (stereo unspecified) | 24.9% | – | 1.56 µg/mL (≈ 2.46 µM)
Cc1nn(-c2ccccc2)c(-n2cncn2)c1C1C2CCCN2C2(C(=O)Nc3ccc(Cl)cc32)C1C(=O)c1cccc([N+](=O)[O-])c1 (stereo unspecified) | 19% | – | 6.25 µg/mL (≈ 9.84 µM)
Cc1nn(-c2ccccc2)c(-n2cncn2)c1C1C2CCCN2C2(C(=O)Nc3ccc(Br)cc32)C1C(=O)c1ccc([N+](=O)[O-])cc1 (stereo unspecified) | 26.4% | – | 6.25 µg/mL (≈ 9.2 µM)
Cc1nn(-c2ccccc2)c(-n2cncn2)c1C1C2CCCN2C2(C(=O)Nc3ccccc32)C1C(=O)c1ccc(Cl)cc1 (stereo unspecified) | 16.9% | – | 6.25 µg/mL (≈ 10.6 µM)
Cc1nn(-c2ccccc2)c(-n2cncn2)c1C1C2CCCN2C2(C(=O)Nc3ccccc32)C1C(=O)c1cccc([N+](=O)[O-])c1 (stereo unspecified) | – | – | > 25 µg/mL
Cc1nn(-c2ccccc2)c(-n2cncn2)c1C1C2CCCN2C2(C(=O)Nc3ccc(Br)cc32)C1C(=O)c1cccc([N+](=O)[O-])c1 (stereo unspecified) | 20.1% | – | 6.25 µg/mL (≈ 9.2 µM)
COc1ccc(C(=O)C2C(c3c(C)nn(-c4ccccc4)c3-n3cncn3)C3CCCN3C23C(=O)Nc2ccc(Br)cc23)cc1 (stereo unspecified) | – | – | 25 µg/mL (≈ 37.6 µM)
Cc1nn(-c2ccccc2)c(-n2cncn2)c1C1C2CCCN2C2(C(=O)Nc3ccc(Cl)cc32)C1C(=O)c1ccc(Cl)cc1 (stereo unspecified) | 17.9% | – | 1.56 µg/mL (≈ 2.5 µM)
Cc1nn(-c2ccccc2)c(-n2cncn2)c1C1C2CCCN2C2(C(=O)Nc3ccc(Br)cc32)C1C(=O)c1ccccc1 (stereo unspecified) | 18.6% | – | 3.12 µg/mL (≈ 4.92 µM)
Cc1nn(-c2ccccc2)c(-n2cncn2)c1C1C2CCCN2C2(C(=O)Nc3ccc(Br)cc32)C1C(=O)c1ccc(Br)cc1 (stereo unspecified) | 22% | – | 1.56 µg/mL (≈ 2.19 µM)
Cc1ccc(C(=O)C2C(c3c(C)nn(-c4ccccc4)c3-n3cncn3)C3CCCN3C23C(=O)Nc2ccccc23)cc1 (stereo unspecified) | – | – | > 25 µg/mL
Cc1nn(-c2ccccc2)c(-n2cncn2)c1C1C2CCCN2C2(C(=O)Nc3ccccc32)C1C(=O)c1ccc([N+](=O)[O-])cc1 (stereo unspecified) | 29.6% | – | 6.25 µg/mL (≈ 10.4 µM)
COc1ccc(C(=O)C2C(c3c(C)nn(-c4ccccc4)c3-n3cncn3)C3CCCN3C23C(=O)Nc2ccc(Cl)cc23)cc1 (stereo unspecified) | 21.6% | – | 3.12 µg/mL (≈ 5.03 µM)
Cc1ccc(C(=O)C2C(c3c(C)nn(-c4ccccc4)c3-n3cncn3)C3CCCN3C23C(=O)Nc2ccc(Cl)cc23)cc1 (stereo unspecified) | – | – | 25 µg/mL (≈ 41.4 µM)
Cc1nn(-c2ccccc2)c(-n2cncn2)c1C1C2CCCN2C2(C(=O)Nc3ccc(Cl)cc32)C1C(=O)c1ccc(Br)cc1 (stereo unspecified) | 26.4% | – | 1.56 µg/mL (≈ 2.33 µM)
CC[C@@H](CO)NCCN[C@@H](CC)CO [ETHAMBUTOL] | – | – | 1.56 µg/mL (≈ 7.64 µM)
